Reference: patent publication US12533425B2, “Methods and systems using peptides for targeting and mapping human nerves in image guided surgery, diagnostics and therapeutic delivery” (ALUME BIOSCIENCES, INC., priority 2019, dated 2026)
“Also recorded” adds a separate entry of the source. Residues, ends and D or L forms follow the SMILES beside them. No end group written: not given here. *: point of attachment. Fluorescein(5-Mal) = O=C1OC2(c3ccc(O)cc3Oc3cc(O)ccc32)c2ccc(N3C(=O)CC(*)C3=O)cc21

Key:
human sural nerve = experiment: Topical application of FAM-labelled peptides on sections of human sural nerve and temporalis muscle; format: binding; details: for normalized average signal intensity for nerve binding: normalized to parent FAM-HNP401, topical 100 μM, human sural nerve sections; for nerve binding and nerve to muscle contrast (words): human nerve and temporalis muscle sections; for effect of truncation on binding and solubility: deletion from C terminus of HNP401
Excerpt: To determine the affinity of phage selected peptides for binding to human nerve they were chemically synthesized by solid-phase synthesis and labeled with fluorescein at the C-terminus via a GGC linker. Peptides were topically applied to sectioned human sural nerve and human temporalis muscle to determine nerve to muscle contrast. […] To confirm binding and contrast of HNP401 for additional nerve types binding was compared in nerve and muscle with both HNP401 and NP41 on facial brachial plexus nerve (FIG. 9). […] FAM-HNP401 was additionally tested topically on ex-vivo tissue for labeling of mouse facial nerve with surrounding muscle (FIG. 10, J-M).
To test the affinity of selected phage display peptides for binding to human nerves, they were chemically synthesized by solid-phase synthesis and labeled with fluorescein at the C-terminus. Peptides were topically applied to sections of surgically harvested human sural nerve and temporalis muscle to determine nerve to muscle contrast for selected peptides and controls (FIG. 23). […] To quantify differential binding to nerve versus muscle, fluorescence signal intensity was measured for ROIs from the perineurium of select nerves and human temporalis muscle.
To enhance and attempt to determine the core binding domain of HNP401, systematic deletion of two amino acids from the C or N terminus was performed (see, for example, FIG. 30) followed by binding analysis on human sural nerve sections (FIG. 20). In each case nerve binding and signal intensity was normalized to the parent FAM-HNP401 peptide (FIG. 20J).
Image J was used to analyze and compare images acquired using the confocal microscope and the Lumar dissecting scope. For each experimental set where probes were compared, we kept the acquisition parameters identical so as to directly compare the data obtained. […] All raw image files for a given experimental cohort were loaded at the same time into Image J as 16-bit tiff images. We then levelled the image for tissue treated with FAM-HNP401. Once these levels were set, the settings are propagated to all images in one step using Image J. The brightest image is set as the benchmark for all other images in the cohort to avoid saturating when the leveling is propagated.

mouse facial nerve = experiment: Topical application on ex-vivo mouse facial nerve with surrounding muscle; format: binding; details: topical 375 and 100 μM, ex-vivo tissue
sciatic nerve = experiment: In-vivo fluorescence imaging of sciatic nerve in mice after i.v. injection of FAM-labelled peptides; parameters: species or system mouse; details: 450 nmols i.v.
Procedure: In-vivo fluorescence image of sciatic nerve of 6 month old SKH1-Elite mice injected i.v. with 450 nmols of FAM-HNP401 (A) or FAM-NP41 (B) and imaged on the Lumar imaging scope 2 h post injection. […] Each mouse was injected i.v. with 100 nmol of FAM-HNP401 prior to blood collection at 1 min, 10 min, 20 min, 30 min, 1 h and 2 h timepoints (H).
In-vivo fluorescence image of sciatic nerves from 6 month old SKH1 mice that had been previously intravenously injected with 450 nmols of FAM-HNP401 [˜48.4 mg/kg] (A) or FAM-NP41 [˜39 mg/kg] (B). […] Each mouse was injected intravenous with 100 nmol [˜11 mg/kg] of FAM-HNP401 prior to blood collection at 1 min, 10 min, 20 min, 30 min, 1 h and 2 h time points.

[1] = Mass spectroscopy analysis of urine after injection of nerve binding peptides
[2] = system: autonomic nerves isolated from human prostate glands; experiment: Topical application on sections of nerves from human prostate gland; format: binding; details: topical 100 μM, 10 μm sections, two patients
Procedure: FAM-HNP401 and FAM-NP41 were then tested topically for binding to autonomic nerves, isolated from excised prostate glands of two human patients (FIGS. 12 and 13). […] Labelled fiber were confirmed as nerve using anti-neurofilament antibody SMI312 (red) and DAPI (blue) to show nuclear labeling (FIG. 12C). H&E staining was also done to confirm label tissue as nerve (FIG. 12D). Similar staining was obtained for peripheral sensory anti-brachial cutaneous nerve isolated from a human arm (FIG. 12E-H).
FAM-HNP401 and FAM-NP41 were tested for binding to autonomic nerves, isolated from the prostate glands of two human patients (FIGS. 19 and 29). […] Quantitation was not done because only 2 patient samples were available for testing as nerve resection during radical prostatectomy is only performed in instances of gross capsular invasion. Labelled fibers were confirmed as nerve using anti-neurofilament antibody SMI312 (red) with DAPI (blue) to show nuclear labeling (FIG. 19C). H&E staining also confirmed label tissue as nerve by histology (FIG. 19D). […] Similar staining using FAM-HNP401 was obtained for another sensory nerve (anti-brachial cutaneous) isolated from human arm showing the broad nerve binding activity of HNP401 (FIGS. 19E-H).

[3] = system: human laryngeal nerve sections; experiment: Dose response of FAM-HNP401 by topical application on human nerve sections, confocal; details: low concentration (10 μM)
Procedure: Determination of optimal dose response by topical application of FAM-HNP401 on human laryngeal nerve sections at final concentration of 375 μM (A), 100 μM (B), 50 μM (C), 10 μM (D) and 1 μM (E), imaged with confocal microscopy with identical parameters and levelled equally for comparison. **brightened 2 fold for viewing.
Dose response data set of FAM-HNP401 on human nerve tissue (FIGS. 25:A-E) was acquired with 488 nm laser line, 10 μm sections on glass at 10× magnification, 0.45 NA air objective lens. Gain set to 40, power set to 3% of laser power, pixel dwell value of 1.2 μs, aperture size of 1.1 μm and a pixel size of 0.3 μm/px with a 2 k by 2 k size image.
Human peripheral nerves (typically sural) were obtained from patients undergoing nerve resection procedures. Human nerves from prostate gland of two patients were acquired under Moores Cancer Centre Biorepository IRB protocol number 090401. Tissue were sectioned and mounted on glass slides or Cryojane tape. Tissue sections were placed in a humidifier chamber for 30 min before application of the peptide solution. Peptides were diluted to appropriate concentration in 0.5×HBSS prior to topical application. 50 μl of peptide solution of with known concentration (1 μM to 375 μM) were applied to 10 μm nerve sections on tape or slides and incubated for 30 minutes in a humidifier chamber. After incubation with peptide nerve sections were washed with twice with 0.5×HBSS and once with 1×PBS. A cover-slip was applied and slides were imaged immediately on either a Zeiss Lumar dissecting scope of Nikon A1 confocal microscope. For confocal imaging tissue sections of 10 μm thickness were imaged with 488 nm laser excitation 515 (25) and a 10× air objective and a 0.26 µm/pixel size.

[4] = system: rat prostate cavernosal nerve; experiment: In-vivo labelling of rat prostate and sciatic nerve; details: i.v., FAM-labelled peptide
Procedure: FIG. 6: Fluorescent labeling of rat prostate cavernosal nerve in live rats.
Either 150 or 450 nmoles nmoles of fluorescein labeled synthetic peptides were injected intravenously into mice. After a 2 hour waiting period for washout of nonspecific binding, mice were anesthetized and skin incisions were made over the dorsal surface of the hind legs to expose the sciatic nerve. Brightfield and fluorescent images were obtained with a dissecting microscope using Metamorph software (FIG. 1). Quantitation of fluorescence of nerves and adjacent non-nerve tissue was performed with Image J (FIG. 2). Peptides were also topically applied to human nerve sections. […]
Following anesthesia with intra-peritoneal injection of ketamine (80 mg/kg) and midazolam (40 mg/kg), FAM-NP41 or its variants were administered into mice retro-orbitally. […] The autonomic nerve along the cavernosal vessel in the prostate was imaged and recorded using a custom-made surgical imaging system. This system is a modified from Olympus MVX10 scope capable of hi-resolution fluorescence, RGB reflectance and realtime overlay with zoom from 0.6 to 5.7 cm field of view. ImageJ was used for quantitative analysis of nerve contrast for each peptide dye conjugate tested. Images of autonomic nerve in prostate were selected from the recorded files and magnified 300-400% prior to selection of ROI and measurement. […]

[5] = Stability of peptides in ex-vivo human plasma (LC-MS); details: 37° C., 5 min vs 2 hours
Procedure: FIGS. 28A-28F: Stability of peptides in ex-vivo human plasma and cerebrospinal fluid from rats. […] An equal volume of 1:1 acetonitrile:water with 2% acetic acid is added to precipitate the protein matter, supernatant is extracted for analysis by LC-MS on a C18 reverse phase column with gradient of 9:1 H2O+0.05% TFA:Acetonitrile+0.05% TFA to 1:9 H2O+0.05% TFA:Acetonitrile+0.05% TFA in 20 min.
The bladder was drained with a syringe and sutured to avoid spillage and contamination around prostate. […] Stability of FAM-HNP401 in human plasma at 5 minutes and 2 hours was determined by incubation of peptide dye conjugate in human serum prior to analysis by mass spectrometry.

[6] = Fluorescent plate reader assay of quenching of FAM-NP41 fluorescence by food dyes
Excerpt: (§1) FIGS. 21A-21C: Food dyes efficiently quench FAM-NP41 bladder fluorescence. A fluorescent plate reader assay was used to show dose dependent quenching of FAM-NP41 fluorescence. Erythrosine extra bluish (Santa Cruz Biotechnology, Inc.) was the most efficient quencher with >˜80% quenching at 2.5 times dye to fluorescein ratio and >95% quenching at 5× dye to fluorescein ratio (A). Other food dyes tested included Allura Red and Sunset Yellow. To test for quenching in-vivo we administered, by direct iv injection, 50 mg/kg MW 879.76 (˜1.5 μmoles per 25 gm mouse) to mice that had been injected with 150 nmoles of FAM-NP41 2 hours prior. This represents approximately a 10× dye to FAM-NP41 dose. Some bladder fluorescence remained after imaging so additional dye (30 μl, 10 mM Erythrosin extra bluish) was injected directly into the bladder. […] Dye would likely not be needed if this method was used for human patients as bladder catheterization in patients could be started as FAM-NP41 is administered so bladder fluorescence could be washed out.

bladder fluorescence = experiment: In-vivo quenching of FAM-NP41 bladder fluorescence; parameters: species or system mouse; details: 50 mg/kg i.v. plus 30 μl 10 mM intra bladder, 150 nmoles FAM-NP41 2 hours prior
Excerpt: as §1

## Ac-QVPWEEPYYVVKKSSGGC [HNP401-N-2, with GGC linker, tested FAM labelled]
Human sural nerve; human sural nerve vs temporalis muscle
  normalized nerve to temporalis muscle contrast, increase with respect to FAM-HNP401: 3 fold
Human sural nerve
  normalized average signal intensity for nerve binding: 2.02±0.65
Human sural nerve; topical 100 uM FAM labelled, human nerve sections, n=5
  average signal intensity, nerve binding of deletion variants: 1498.73 (+/−517.63)

## Ac-EEPYYVVKKSSGGC [HNP401-N-6, with GGC linker, tested FAM labelled]
Human sural nerve
  normalized average signal intensity for nerve binding: 1.0±0.34

## Ac-PWEEPYYVVKKSSGGC [HNP401-N-4, with GGC linker, tested FAM labelled]
Human sural nerve
  normalized average signal intensity for nerve binding: 0.56±0.18

## carboxyfluorescein [reference compound]
Human sural nerve; topical 100 μM
  nerve binding and nerve to muscle contrast (words): only weak non-specific binding
Human sural nerve; topical 100 μM, listed as Carboxyfluorescein
  nerve binding and nerve to muscle contrast (words): low signal and non-specific binding

## Ac-SGQVPWEEPYYVVKKGGC [HNP401-C-2, with GGC linker, tested FAM labelled]
Human sural nerve
  effect of truncation on binding and solubility: tolerated

## CC(=O)N[C@@H](CO)C(=O)NCC(=O)N[C@@H](CCC(N)=O)C(=O)N[C@H](C(=O)N1CCC[C@H]1C(=O)N[C@@H](Cc1c[nH]c2ccccc12)C(=O)N[C@@H](CCC(=O)O)C(=O)N[C@@H](CCC(=O)O)C(=O)N1CCC[C@H]1C(=O)N[C@@H](Cc1ccc(O)cc1)C(=O)N[C@@H](Cc1ccc(O)cc1)C(=O)N[C@H](C(=O)N[C@H](C(=O)N[C@@H](CCCCN)C(=O)N[C@@H](CCCCN)C(=O)N[C@@H](CO)C(=O)N[C@@H](CO)C(=O)NCC(=O)NCC(=O)N[C@@H](CSC1CC(=O)N(c2ccc3c(c2)C(=O)OC32c3ccc(O)cc3Oc3cc(O)ccc32)C1=O)C(N)=O)C(C)C)C(C)C)C(C)C (stereo partly shown) [FAM-HNP401] (Ac-SGQVPWEEPYYVVKKSSGGC(Fluorescein(5-Mal))-NH2)
Mouse facial nerve
  labeling of mouse facial nerve versus surrounding muscle: poor contrast; also recorded: did not perform as well as FAM-NP41
Sciatic nerve; imaged 2 h post injection, SKH1 mice
  nerve to surrounding muscle contrast: 5.79±0.81
Sciatic nerve; mice
  increase in sciatic nerve fluorescence intensity compared to NP41: 2.3 fold
  signal intensity for in-vivo binding to mouse sciatic nerve compared to FAM-NP41: 2.3 ×
[1]
  metabolism of peptide detected in urine: partially metabolized
[2]
  fluorescent signal in human autonomic (cavernosal) nerves compared to FAM-NP41: significantly higher fluorescent signal
[3]
  structures of nerve bound (confocal imaging): binding of peptide to non-axonal structural components of nerve; also recorded: excluded from axons
[3]; listed as FAM-HMP401
  structures of nerve bound (confocal imaging): does not bind axons, but preferentially binds the perineurium
[3]; listed as HNP401-FAM
  structures of nerve bound (confocal imaging): binds epineurium, perineurium and endonerium but not axons
[4]
  fluorescent labeling of rat prostate and sciatic nerve in live rats: highlighted
Human sural nerve; human sural nerve vs temporalis muscle, topical 100 μM, n=4
  nerve to muscle contrast: 3.03±0.57
Human sural nerve; topical 100 μM, 10 μm unfixed sections, confocal, n=4
  fluorescent signal intensity of perineurium: 1374.44±425.96
Human sural nerve; topical 100 μM
  nerve binding and nerve to muscle contrast (words): highest contrast
Human sural nerve; topical 100 μM, human sural nerve
  fluorescent signal intensity compared to FAM-NP41: 10.9 ×
Human sural nerve; topical, human nerve
  signal for binding human nerve compared to FAM-NP41: 10 fold
[5]
  stability in human plasma: remain intact; also recorded: stable

## SEFPRSWDMETN [HNP301]
[4]
  fluorescent labeling of rat prostate and sciatic nerve in live rats: not showing as much contrast

## O=C1OC2(c3ccccc31)c1cc(I)c(O)c(I)c1Oc1c2cc(I)c(O)c1I [Erythrosine extra bluish]
[6]; 2.5 times dye to fluorescein ratio
  quenching of FAM-NP41 fluorescence: > 80%
[6]; 5× dye to fluorescein ratio
  quenching of FAM-NP41 fluorescence: > 95%
Bladder fluorescence
  bladder fluorescence after quencher: near background level

## Ac-SGQVPWEEPYYVVGGC [HNP401-C-4, with GGC linker, tested FAM labelled]
Human sural nerve
  effect of truncation on binding and solubility: reduced dramatically
  normalized average signal intensity for nerve binding: 0.49±0.11

## Ac-PYYVVKKSSGGC [HNP401-N-8, with GGC linker, tested FAM labelled]
Human sural nerve
  normalized average signal intensity for nerve binding: 0.98±0.31
